Source: patent US20220002674A1, “T CELLS WITH SUICIDE SWITCH” (priority 2018, published 2022)

Experiments:
AOS-1 T cells = assay: 4-hour apoptosis assay with 10 nM rimiducid on AOS-1 T cells sorted by CD19 intensity; format: cell-based, human; details: for CD19+ specific killing: low-CD19 sorted cells; for median killing efficacy: 10 nM, 4 hours
Protocol: To measure apoptosis 5×10^5 cells were plated per 48-well, and rimiducid was added at a concentration of 10 nM in a 4-hour assay. Phenotyping and functional assays (e.g., apoptosis) were performed by flow cytometry, qPCR and Western blot before and after T cell reactivation using anti-CD3/anti-CD28 antibodies. The phenotype of the cells was determined by staining cells for flow cytometry analysis with anti-CD3, anti-CD4, anti-CD8, anti-CD19, anti-CD45RA, anti-CD45RO, and anti-CCR7 antibodies. Terminal effector memory cells are defined as CD45RA^+CD45RO^−CCR7^−. T effector memory cells are defined as CD45RA^−CD45RO^+CCR7^−. T central memory cells are defined as CD45RA^−CD45RO^+CCR7^+. Naïve T cells are defined as CD45RA^+CD45RO^−CCR7^+. Diversity of the T cell receptor repertoire was assessed by flow cytometry.

EGFPluc+ iC9-T cells = assay: T cell bioluminescence (IVIS) in NSG mice after rimiducid; format: in vivo
Protocol: (§1) In vivo studies were performed by i.v. injection of control or gene-modified T cells co-expressing luciferase into NSG mice. 1×10^7 EGFPluc+ iC9-T cells were infused into NSG mice. T cell bioluminescence was measured at 2 and 24 hours after infusion, followed by i.p. injection of a titrated dose of rimiducid or placebo (control drug). The animals were administered either control drug (temsirolimus; 1 mg/kg), rimiducid (0.001-1 mg/kg), or vehicle. Remaining T cell bioluminescence was measured at 6, 24 and 48 hours after drug administration. Bioluminescent imaging and flow cytometry were performed to assess in vivo depletion following iC9 activation.
The maximal elimination effect in the kill switch induced by rimiducid was reached 24 hours post drug administration. The values for average radiance were normalized to the initial radiance in each mouse using the formula: D Average radiance=100*[Timepoint “X” radiance]/[Timepoint “0” radiance]. Error bars represents S.E.M. Two-way ANOVA test was used to assess statistical significance of differences in T cell radiance between multiple groups at different time points.

[1] = test system: CD3+CD19+ cells (iC9+ T cells); assay: flow cytometric analysis of cells harvested from spleens 48 h post drug treatment; format: in vivo, NSG mice; details: for reduction of CD3+CD19+ cells in spleen: 48 h, compared to vehicle
Protocol: as §1
FIG. 18 depicts a flow cytometric analysis of cells harvested from spleens 48 h post drug treatment.

CD3+CD19+ T cells = assay: rimiducid treatment of patients engrafted with AOS-1 to control GvHD; format: in vivo, human
Protocol: Engraftment and persistence of the donor modified T cells were measured by co-expression of CD3 and CD19 by flow cytometry. Endogenous and gene-modified T cells were also phenotyped for CD4:CD8 ratios, memory cell composition (TN, TCM, TEM, TEMRA; CD45RA and CD62L) and T cell receptor Vβ diversity.

[2] = test system: WT1, PRAME, MAGE, NE and PR3; assay: IFN-γ ELIspot for LAA-specific T cells against peptide pools; format: cell-based, human; details: 10 nM rimiducid
Protocol: PBMCs were mixed with pre-warmed (37° C.) cell culture media and centrifuged cells at […] for 10′ at 4° C. Cells were resuspended and counted using Cellometer. Cells were then centrifuged again at 1200 rpm for 10′. The cells were then resuspended in culture media at a concentration of 1×10^6/mL and 100 μL were added per well. 100 μL of 2X peptide stock or PHA were added to the desired wells. The plates were mixed gently for 2′. The plates were transferred to a 37° C. incubator with 5% CO2 and incubated for 18-24 hours. 100 μL capture anti-IFNγ antibody was added to each PBS-pre wetted well. The plates were then incubated at 4±3° C. overnight. After incubation the plates were washed 3 times with 200 μL D-PBS. Unbound sites were blocked with 100 μL D-PBS containing 10% culture media for 120+15 minutes at room temperature in a BSC. The plates were then washed 3 times with 200 μL D-PBS. 200 μL D-PBS were added into the wells. The plates were left at room temperature until the cells are ready. When cells were ready plates were removed from the incubator and the wells rinsed 2 times with tap water. The plates were then washed 5 times with D-PBS, containing 0.05% Tween 20. The wells and well bottoms were rinsed with distilled water. […] Plates were left to dry at room temperature before reading on an ELISpot reader.

AOS-1 cells = assay: speed of elimination of low-, medium- and high-CD19 populations in mice after rimiducid (FIG. 27); format: in vivo; details: 5 mg/kg rimiducid on day 0, 1.5×10^7 AOS-1 cells on day −1
Excerpt: Figures are means from 40 mice.
Further experiments looked at the speed of elimination of low-CD19, medium-CD19 and high-CD19 populations after administration of rimiducid.

[3] = test system: genetically-modified T cells; assay: rimiducid dose that eliminates infused genetically-modified T cells; format: in vivo; details: cells infused at 1.5×10^7 cells/kg
[4] = human, in vivo; cited from earlier work

CC[C@H](C(=O)N1CCCC[C@H]1C(=O)O[C@H](CCc1ccc(OC)c(OC)c1)c1cccc(OCC(=O)NCCNC(=O)COc2cccc([C@@H](CCc3ccc(OC)c(OC)c3)OC(=O)[C@@H]3CCCCN3C(=O)[C@@H](CC)c3cc(OC)c(OC)c(OC)c3)c2)c1)c1cc(OC)c(OC)c(OC)c1 (relative stereo) [rimiducid, 2-Piperidinecarboxylic acid, 1-[(2S)-1-oxo-2-(3,4,5-trimethoxyphenyl)butyl]-, 1,2-ethanediylbis[imino(2-oxo-2,1-ethanediyl)oxy-3,1-phenylene[(1R)-3-(3,4-dimethoxyphenyl)propylidene]] ester, [2S-[1(R*),2R*[S*[S*[1(R*),2R*]]]]]-(9CI)]
apoptosis (AOS-1 T cells; all fractions after reactivation with anti-CD3/anti-CD28): over 90% | cells gone through apoptosis (AOS-1 T cells; high MFI of CD19 cells, 10 nM rimiducid, within 4 hours): more than 95% | CD19+ specific killing (AOS-1 T cells; after activation in vitro): 97% | CD19+ specific killing (AOS-1 T cells; before activation): 46% | median killing efficacy (AOS-1 T cells; sorted high CD19 cells): 92% | median killing efficacy (AOS-1 T cells; sorted low CD19 cells): 69% | median killing efficacy (AOS-1 T cells; sorted medium CD19 cells): 87% | killing (AOS-1 T cells; unstimulated high iC9-ΔCD19 cells): 86% | killing (AOS-1 T cells; unstimulated low iC9-ΔCD19 cells): 50% | killing (AOS-1 T cells; unstimulated medium iC9-ΔCD19 cells): 76% | reduction of relative total flux (EGFPluc+ iC9-T cells; 0.01 mg/kg i.p., 6-hour): 82.5% | reduction of relative total flux (EGFPluc+ iC9-T cells; 0.01 mg/kg i.p., 24-hour): 90.5% | reduction of relative total flux (EGFPluc+ iC9-T cells; 0.01 mg/kg i.p., 48-hour): 90.5% | reduction of relative total flux (EGFPluc+ iC9-T cells; 0.1 mg/kg i.p., 6-hour): 92.5% | reduction of relative total flux (EGFPluc+ iC9-T cells; 0.1 mg/kg i.p., 24-hour): 95.5% | reduction of relative total flux (EGFPluc+ iC9-T cells; 0.1 mg/kg i.p., 48-hour): 95.3% | reduction of relative total flux (EGFPluc+ iC9-T cells; 1 mg/kg i.p., 6-hour): 96% | reduction of relative total flux (EGFPluc+ iC9-T cells; 1 mg/kg i.p., 24-hour): 98.1% | reduction of relative total flux (EGFPluc+ iC9-T cells; 1 mg/kg i.p., 48-hour): 98.1% | time at which maximal elimination effect was reached (EGFPluc+ iC9-T cells; post drug administration): 24 h | reduction of CD3+CD19+ cells in spleen ([1]; 0.01 mg/kg): 99.6% | reduction of CD3+CD19+ cells in spleen ([1]; 0.1 mg/kg): 98.6% | reduction of CD3+CD19+ cells in spleen ([1]; 1 mg/kg): 89.6% | MFI of CD19 in CD3+CD19+ cells ([1]; treated groups, down to 0.001 mg/kg): dose dependent decrease | course of CD3+CD19+ T cells and GvHD after rimiducid (CD3+CD19+ T cells; patients treated with rimiducid): recovered without further instances of GvHD | decrease of CD3+CD19+ T cells in the peripheral blood (CD3+CD19+ T cells; three patients with GvHD): 62±12% | LAA-reactivity on exposure to rimiducid [2]: greatly diminished | elimination of CD19-high cells (AOS-1 cells): eliminated within half an hour | elimination of CD19-low cells (AOS-1 cells): declined more slowly | elimination of CD19-medium cells (AOS-1 cells): fell to near-zero within an hour | dose that can eliminate cells [3]: 0.4 mg/kg | safety in healthy volunteers [4]: proven safe in healthy volunteers
